Results: patent publication US20260151413A1, “ANTICANCER DRUG CONJUGATES” (Ariel Scientific Innovations Ltd., priority 2022, published 2026)
“Also recorded” adds a separate entry of the source.

Legend:
Format in all cases: cell-based
[1] = tested on: OCI-AML3; experiment: WST-1 proliferation assay, OCI-AML3; settings: Homo sapiens, OCI-AML-3; WST-1, 48 hours of treatment
Procedure: (§1) Albert Pinhasov (Ariel University, Ariel, Israel). […] Granta cells were kindly provided by Prof.
(§2) Table 3 [resents the calculated IC50 values (μM) for each chimera in different hematological malignancies cell-lines. The proliferation rate was measured by WST-1 assay after 48 hours of treatment. The result shown for each concentration point represents the […]

[2] = tested on: KG-1a; experiment: WST-1 proliferation assay, KG-1a; settings: Homo sapiens, KG-1a; WST-1, 48 hours of treatment
Procedure: as §1, §2

[3] = tested on: OCI-AML3, KG-1a, Granta, Jeko-1, BV-173 and MDA MB-231 cell-lines; experiment: Low-dose proliferation test on aggressive cell-lines; settings: 50 nM-250 nM
Procedure: The cytotoxicity of the synthesized chimeras on MDA MB-328 was determined by measuring the mitochondrial enzyme activity, using a commercial XTT assay kit (Biological Industries, Bet-Ha'emek, Israel). All samples contained DMSO (Sigma Aldrich) at final concentration […], XTT reagent was added, and the cells were re-incubated for additional 3 h. During that time, the absorbencies in the wells were measured with a TECAN Infinite M200 ELISA reader at both 480 and 680 nm. The difference between these measurements was used for calculating the % Growth Inhibition (GI) in test wells compared to two controls: cells that were exposed to the medium and solvent, and those which were exposed to a solvent-free medium. All the tests were done in tetra-plicate; each experiment was conducted three times.
Therefore, it was decided to reduce chimera 9 and the parental drug (doxorubicin) doses to 50-250 nM range on the most four aggressive hematological malignancies cell-lines (OCI-AML3, KG-1a, Granta and Jeko-1). Moreover, chimera 9 was examined on an additional aggressive leukemia cell line (BV-173) and breast cancer cell-line model (MDA MB-231).

[4] = tested on: Human primary anaplastic thyroid cancer (ATC) cells; experiment: Vitality/proliferation of primary anaplastic thyroid cancer cells; settings: 100 nM, 250 nM, 500 nM; 3, 5 and 7 days
Procedure: Human primary anaplastic thyroid cancer (ATC) cells were treated with chimera 9 (100 nM, 250 nM, and 500 nM), or Doxorubicin (100 nM, 250 nM, and 500 nM), or with vehicle, for 3, 5, and 7 days.

SMILES: COC(=O)N(C)/N=N/c1ccc(CNC2CC(OC3CC(O)(C(=O)CO)Cc4c(O)c5c(c(O)c43)C(=O)c3c(OC)cccc3C5=O)OC(C)C2O)cc1 (stereo not shown) [Chimera 9, (E)-methyl-3-(4-(((3-hydroxy-2-methyl-6-((3,5,12-trihydroxy-3-(2-hydroxyacetyl)-10-methoxy-6,11-dioxo-1,2,3,4,6,11-hexahydrotetracen-1-yl)oxy)tetrahydro-2H-pyran-4-yl)amino)methyl)phenyl)-1-methyltriaz-2-ene-1-carboxylate]
- IC50 [1]: 1240 nM
- IC50 [2]: 400 nM
- proliferation rate versus corresponding controls [3]: significant reduction in the proliferation rate
- vitality/proliferation of primary human ATC cells [4]: reduced the vitality/proliferation of primary human ATC cells significantly; also recorded: higher effect
